Where two headings read alike, the source gives them in different places. Where a SMILES comes first, the peptide text is derived from it. Bridges are numbered along the chain shown (N, C = ends). [ ]: non-standard residue; d: D form. Phe(4-Cl) = N[C@@H](Cc1ccc(Cl)cc1)C(=O)O; Dap = NC[C@H](N)C(=O)O
How the values were obtained:
P-selectin = biological target: T1, P-selectin (Homo sapiens, UniProt P16109); assay: Inhibition of human neutrophil adhesion to purified P-selectin immobilized on plastic wells; assay type: cell-based; details: for IC50: inhibiting the binding of human neutrophils to P-selectin; for biological activity / inhibiting neutrophil adhesion to P-selectin (result in words): human neutrophils, purified human P-selectin
T1 construct: P-selectin is isolated from human platelet lysates; from tissue; host or cells: human platelets (outdated platelet packs from a blood bank)
T1 sequence (P16109 42-830): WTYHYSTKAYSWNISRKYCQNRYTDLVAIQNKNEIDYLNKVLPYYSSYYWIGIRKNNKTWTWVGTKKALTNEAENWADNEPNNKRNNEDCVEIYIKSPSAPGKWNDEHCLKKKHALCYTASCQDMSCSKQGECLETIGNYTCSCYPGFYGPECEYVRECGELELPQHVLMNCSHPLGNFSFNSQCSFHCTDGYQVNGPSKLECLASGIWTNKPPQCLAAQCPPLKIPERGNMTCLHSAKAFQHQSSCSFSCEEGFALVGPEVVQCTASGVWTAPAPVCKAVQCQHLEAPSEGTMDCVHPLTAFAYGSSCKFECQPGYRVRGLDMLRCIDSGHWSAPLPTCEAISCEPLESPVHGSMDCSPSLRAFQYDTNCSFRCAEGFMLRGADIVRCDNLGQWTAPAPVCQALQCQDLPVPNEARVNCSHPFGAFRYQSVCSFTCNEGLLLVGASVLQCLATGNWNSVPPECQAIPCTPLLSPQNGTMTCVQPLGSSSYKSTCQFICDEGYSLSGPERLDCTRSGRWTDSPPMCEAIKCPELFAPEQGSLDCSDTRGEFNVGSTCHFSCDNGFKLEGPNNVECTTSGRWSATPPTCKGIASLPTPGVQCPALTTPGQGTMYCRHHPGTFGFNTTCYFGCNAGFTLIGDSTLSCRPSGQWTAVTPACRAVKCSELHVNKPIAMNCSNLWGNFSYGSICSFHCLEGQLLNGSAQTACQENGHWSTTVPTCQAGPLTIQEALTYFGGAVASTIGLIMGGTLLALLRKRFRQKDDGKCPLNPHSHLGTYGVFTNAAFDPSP
Summary of the method: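 Isolated human neutrophils (2×10^5 per well) in HBSS with Ca2+/Mg2+ and HSA added to wells coated overnight at 4° C with platelet-derived P-selectin (5 micrograms/mL), HSA-blocked; 20 min at 22° C. Nonadherent cells removed by inverted centrifugation at 150 g; adherent cells quantified by myeloperoxidase activity.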

Row | SMILES | IC50 (P-selectin) | also measured
1 | CC(C)[C@@H](NC(=O)[C@@H](Cc1c[nH]c2ccccc12)NC(=O)[C@H](NC(=O)[C@@H](Cc1c[nH]c2ccccc12)NC(=O)[C@H]1CSSC[C@@H](NC(=O)[C@@H](CCCCN)NC(=O)[C@H](N)CCCNC(=N)N)C(=O)NCCC(=O)N[C@@H](Cc2ccccc2)C(=O)N1)[C@H](C)O)C(N)=O |  | ring closure, yield of all isomers (from CC(C)[C@@H](NC(=O)[C@@H](Cc1c[nH]c2ccccc12)NC(=O)[C@H](NC(=O)[C@@H](Cc1c[nH]c2ccccc12)NC(=O)[C@@H](CS)NC(=O)[C@H](Cc1ccccc1)NC(=O)CCNC(=O)[C@@H](CS)NC(=O)[C@@H](CCCCN)NC(=O)[C@H](N)CCCNC(=N)N)[C@H](C)O)C(N)=O, disulfide bond, air, Cu wire, ammonium acetate pH 8.5, water, 0.842 mM, 22.0 h): 8.1%
2 | CC(C)[C@H](NC(=O)[C@H](Cc1c[nH]c2ccccc12)NC(=O)[C@@H](NC(=O)[C@H](Cc1c[nH]c2ccccc12)NC(=O)[C@@H]1CC(=O)NC[C@H](NC(=O)[C@H](CCCCN)NC(=O)[C@@H](N)CCCNC(=N)N)C(=O)NCC(=O)NCC(=O)N1)[C@@H](C)O)C(N)=O |  | ring closure, yield of all isomers (amide bond, BOP/HOBt/DIEA, NMP, 80.0 h, 9 steps): 8.5%
3 | CC[C@@H](C)[C@@H](NC(=O)[C@@H](CCCCN)NC(=O)[C@H](N)CCCNC(=N)N)C(=O)NCC(=O)N[C@@H]1CSSC[C@H](C(=O)N[C@@H](C(=O)N[C@@H](C(N)=O)C(C)C)[C@H](C)O)NC(=O)[C@@H](Cc2c[nH]c3ccccc23)NC(=O)[C@@H]([C@H](C)CC)NC1=O [(108)] (H-[dR][dK][dI]G[dC][dI][dW][dC][dT][dV]-NH2; disulfide 5-8) | 23.8 µM | 
4 | CC[C@@H](C)[C@@H](NC(=O)CNC(=O)[C@H]1CSSC[C@@H](N)C(=O)N[C@H](CCCCN)C(=O)N[C@H]([C@H](C)CC)C(=O)N1)C(=O)N[C@H](Cc1c[nH]c2ccccc12)C(=O)N[C@@H](C(=O)N[C@H](Cc1c[nH]c2ccccc12)C(=O)N[C@@H](C(N)=O)C(C)C)[C@H](C)O [(109)] (H-[dC][dK][dI][dC]G[dI][dW][dT][dW][dV]-NH2; disulfide 1-4) | 33.9 µM | 
5 | CC(C)[C@@H](NC(=O)[C@@H](Cc1c[nH]c2ccccc12)NC(=O)[C@H](NC(=O)[C@@H](Cc1c[nH]c2ccccc12)NC(=O)[C@H]1CSSC[C@@H](NC(=O)[C@@H](C)NC(=O)[C@H](N)CCCNC(=N)N)C(=O)NCC(=O)N[C@@H](Cc2ccccc2)C(=O)N1)[C@H](C)O)C(N)=O [(110)] (H-[dR][dA][dC]GF[dC][dW][dT][dW][dV]-NH2; disulfide 3-6) | 52.9 µM | 
6 | CC(C)[C@@H](NC(=O)[C@@H](Cc1c[nH]c2ccccc12)NC(=O)[C@H](NC(=O)[C@@H](Cc1c[nH]c2ccccc12)NC(=O)[C@H]1CSSC[C@@H](NC(=O)[C@@H](CCC(N)=O)NC(=O)[C@H](N)CCCNC(=N)N)C(=O)NCC(=O)N[C@@H](Cc2ccccc2)C(=O)N1)[C@H](C)O)C(N)=O [(111)] (H-[dR][dQ][dC]GF[dC][dW][dT][dW][dV]-NH2; disulfide 3-6) | 18.4 µM | 
7 | CC(C)[C@@H](NC(=O)[C@@H](Cc1c[nH]c2ccccc12)NC(=O)[C@H](NC(=O)[C@@H](Cc1c[nH]c2ccccc12)NC(=O)[C@H]1CSSC[C@@H](NC(=O)[C@@H](CCC(=O)O)NC(=O)[C@H](N)CCCNC(=N)N)C(=O)NCC(=O)N[C@@H](Cc2ccccc2)C(=O)N1)[C@H](C)O)C(N)=O [(112)] (H-[dR][dE][dC]GF[dC][dW][dT][dW][dV]-NH2; disulfide 3-6) | 236 µM | 
8 | CC(C)[C@@H](NC(=O)[C@@H](Cc1c[nH]c2ccccc12)NC(=O)[C@H](NC(=O)[C@@H](Cc1c[nH]c2ccccc12)NC(=O)[C@@H]1CSSC[C@H](NC(=O)[C@@H](CCCCN)NC(=O)[C@H](N)CCCNC(=N)N)C(=O)NCC(=O)NCC(=O)N1)[C@H](C)O)C(N)=O [(113)] (H-[dR][dK]CGGC[dW][dT][dW][dV]-NH2; disulfide 3-6) | 0.7 µM | 
9 | CC(C)[C@@H](NC(=O)[C@@H](Cc1c[nH]c2ccccc12)NC(=O)[C@H](NC(=O)[C@@H](Cc1c[nH]c2ccccc12)NC(=O)[C@H]1CSSC[C@@H](NC(=O)[C@@H](CCCCN)NC(=O)[C@H](N)CCCNC(=N)N)C(=O)N[C@H](CCC(N)=O)C(=O)N[C@@H](CCC(N)=O)C(=O)N1)[C@H](C)O)C(N)=O [(114)] (H-[dR][dK][dC][dQ]Q[dC][dW][dT][dW][dV]-NH2; disulfide 3-6) | 12.1 µM | 
10 | CC(C)[C@H](NC(=O)[C@H](Cc1c[nH]c2ccccc12)NC(=O)[C@@H](NC(=O)[C@H](Cc1c[nH]c2ccccc12)NC(=O)[C@@H]1CC(=O)NC[C@H](NC(=O)[C@H](CCCCN)NC(=O)[C@@H](N)CCCNC(=N)N)C(=O)NCC(=O)NCC(=O)N1)[C@@H](C)O)C(N)=O [Preferred peptide (22), Arginyl-lysyl-cyclo(diaminopropionyl-glycyl-glycyl-aspartyl)-tryptophyl-threonyl-tryptophyl-valine-amide] (H-RK[Dap]GGDWTWV-NH2; lactam 3-6) |  | concentration at which active in inhibiting neutrophil adhesion to P-selectin (P-selectin; stated in text as 'active at'): 13 mM
11 | CC[C@H](C)[C@H](NC(=O)[C@H](CCCCN)NC(=O)[C@@H](N)CCCNC(=N)N)C(=O)NCC(=O)NCC(=O)N[C@H]1CCCCNC(=O)CC[C@@H](C(N)=O)NC(=O)[C@H](Cc2c[nH]c3ccccc23)NC(=O)[C@H]([C@@H](C)O)NC(=O)[C@H](Cc2c[nH]c3ccccc23)NC1=O [SEQ ID NO:1, Arg-Lys-Ile-Gly-Gly-cyclo(Lys-Trp-Thr-Trp-Glu)-NH2] (H-RKIGGKWTWE-NH2; lactam 6-10) |  | biological activity / inhibiting neutrophil adhesion to P-selectin (result in words) (P-selectin): inactive
12 | CC[C@H](C)[C@H](NC(=O)[C@H](CCCCN)NC(=O)[C@@H](N)CCCNC(=N)N)C(=O)NCC(=O)NCC(=O)N[C@H]1CCC(=O)NCCCC[C@@H](C(N)=O)NC(=O)[C@H](Cc2c[nH]c3ccccc23)NC(=O)[C@H]([C@@H](C)O)NC(=O)[C@H](Cc2c[nH]c3ccccc23)NC1=O [SEQ ID NO:2, Arg-Lys-Ile-Gly-Gly-cyclo(Glu-Trp-Thr-Trp-Lys)-NH2] (H-RKIGGEWTWK-NH2; lactam 6-10) |  | biological activity / inhibiting neutrophil adhesion to P-selectin (result in words) (P-selectin): inactive
13 | CC(C)[C@H](NC(=O)[C@H](Cc1c[nH]c2ccccc12)NC(=O)[C@@H](NC(=O)[C@H](Cc1c[nH]c2ccccc12)NC(=O)[C@@H]1CNC(=O)C[C@H](NC(=O)[C@H](CCCCN)NC(=O)[C@@H](N)CCCNC(=N)N)C(=O)NCC(=O)NCC(=O)N1)[C@@H](C)O)C(N)=O [SEQ ID NO:3, Arg-Lys-cyclo(Asp-Gly-Gly-Dap)-Trp-Thr-Trp-Val-NH2] (H-RKDGG[Dap]WTWV-NH2; lactam 3-6) |  | biological activity / inhibiting neutrophil adhesion to P-selectin (result in words) (P-selectin): totally inactive

Now from value to compound, other results behind:

Row | IC50 (P-selectin) | SMILES | also measured
14 | 1.5 µM | CC(C)[C@@H](NC(=O)[C@@H](Cc1c[nH]c2ccccc12)NC(=O)[C@H](NC(=O)[C@@H](Cc1c[nH]c2ccccc12)NC(=O)[C@H]1CSSC[C@@H](NC(=O)[C@@H](CCCCN)NC(=O)[C@H](N)CCCNC(=N)N)C(=O)NCC(=O)N[C@@H](Cc2ccc(Cl)cc2)C(=O)N1)[C@H](C)O)C(N)=O [(115)] (H-[dR][dK][dC]G[Phe(4-Cl)][dC][dW][dT][dW][dV]-NH2; disulfide 3-6) | 
15 | 4.6 µM | CC(C)[C@@H](NC(=O)[C@@H](Cc1c[nH]c2ccccc12)NC(=O)[C@H](NC(=O)[C@@H](Cc1c[nH]c2ccccc12)NC(=O)[C@H]1CSSC[C@@H](NC(=O)[C@@H](CCCCN)NC(=O)[C@H](N)CCCNC(=N)N)C(=O)NCC(=O)N[C@H](C(C)C)C(=O)N1)[C@H](C)O)C(N)=O [(116)] (H-[dR][dK][dC]G[dV][dC][dW][dT][dW][dV]-NH2; disulfide 3-6) | 
16 | 238 µM | CC(C)[C@@H](NC(=O)[C@@H](Cc1c[nH]c2ccccc12)NC(=O)[C@H](NC(=O)[C@@H](Cc1c[nH]c2ccccc12)NC(=O)[C@H]1CSSC[C@@H](NC(=O)[C@@H](CCCCN)NC(=O)[C@H](N)CC(=O)O)C(=O)NCC(=O)N[C@@H](Cc2ccccc2)C(=O)N1)[C@H](C)O)C(N)=O [(117)] (H-[dD][dK][dC]GF[dC][dW][dT][dW][dV]-NH2; disulfide 3-6) | 
17 | 115 µM | CC[C@H](C)[C@@H]1NC(=O)[C@H](CCCCN)NC(=O)[C@@H](N)CCC(=O)NCCCC[C@@H](C(=O)N[C@@H](Cc2c[nH]c3ccccc23)C(=O)N[C@H](C(=O)N[C@@H](Cc2c[nH]c3ccccc23)C(=O)N[C@H](C(N)=O)C(C)C)[C@@H](C)O)NC(=O)CNC(=O)CNC1=O [Preferred peptide (1), Cyclo(glutamyl-lysyl-isoleucyl-glycyl-glycyl-lysyl)-tryptophyl-threonyl-tryptophyl-valine-amide] (H-EKIGGKWTWV-NH2; lactam 1-6) | 

From US5753617A, “Peptide inhibitors of cellular adhesion” (Centocor, Inc., priority 1995, dated 1998)
